Some test systems named below: CAKI-1 renal; DLD-1 colon; HOP-18 NSCLC; HT29 colon; K-562 leukemia; M19-MEL melanoma; MALME-3M melanoma; NCI-H522 lung; OVCAR-3 ovarian; OVCAR-4 ovarian; OVCAR-5 ovarian; SF-295 CNS; SNB-78 CNS; SR leukemia; A498 renal.
Common to all, as to experiment: inhibition of tumour cell growth, NCI panel, 48 h

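Five compound concentrations were applied to cells in 96-well plates for 48 hours; endpoints were derived by simple linear interpolation of the resulting dose-response curve. Abbreviation: GI50, concentration required for 50% inhibition of growth. The concentration for full growth arrest is given as TGI.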

In the case of `CCOC(=O)C1(C#N)C(c2ccccc2)CC(O)(c2ccc([N+](=O)[O-])cc2)C(C(=O)c2ccc([N+](=O)[O-])cc2)C1c1ccccc1` (stereo not given), the TGI in the experiment on CAKI-1 renal, in the experiment on DLD-1 colon, in the experiment on HOP-18 NSCLC, with HT29 colon, in the experiment with K-562 leukemia and in the experiment with M19-MEL melanoma was over 100 µM throughout. Also, the TGI in the experiment on MALME-3M melanoma, in the experiment on NCI-H522 lung, with OVCAR-3 ovarian, in the experiment with OVCAR-4 ovarian, in the experiment on OVCAR-5 ovarian and with SF-295 CNS was over 100 µM in each case. The TGI with SNB-78 CNS and in the experiment with SR leukemia was over 100 µM throughout.
Take `CC(C)N(C(=O)C1(C)CC1)C(C)C`: the TGI in the experiment on A498 renal, in the experiment with CAKI-1 renal, with DLD-1 colon, with HOP-18 NSCLC, in the experiment with HT29 colon and in the experiment with K-562 leukemia was over 100 µM in each case. Besides, the TGI in the experiment on M19-MEL melanoma, in the experiment with MALME-3M melanoma, in the experiment with NCI-H522 lung, in the experiment on OVCAR-3 ovarian, in the experiment on OVCAR-4 ovarian and in the experiment on OVCAR-5 ovarian was over 100 µM in each case. For the same compound, the TGI with SF-295 CNS and with SNB-78 CNS was over 100 µM each time.
In the case of `CCOc1cc2ccc3c4cc(OC)c(OC)cc4cnc3c2cc1OCC`, the TGI in the experiment with A498 renal, in the experiment with CAKI-1 renal, in the experiment with DLD-1 colon, with HOP-18 NSCLC, in the experiment on HT29 colon and in the experiment with K-562 leukemia was over 100 µM each time. Moreover, the TGI in the experiment on M19-MEL melanoma, in the experiment with MALME-3M melanoma, with NCI-H522 lung, in the experiment with OVCAR-3 ovarian, in the experiment with OVCAR-4 ovarian and with OVCAR-5 ovarian was over 100 µM throughout. The TGI with SF-295 CNS and with SNB-78 CNS was over 100 µM throughout.
`CC(C)C1C(=O)NC(CO)Cc2c[nH]c3c(C(c4c[nH]c5ccccc45)C(O)CO)ccc(c23)N1C` (stereo not given): the TGI in the experiment on A498 renal, with DLD-1 colon, in the experiment on HOP-18 NSCLC, in the experiment on HT29 colon, with K-562 leukemia and in the experiment with M19-MEL melanoma was over 100 µM each time. The TGI in the experiment with NCI-H522 lung, in the experiment with OVCAR-3 ovarian, in the experiment with OVCAR-4 ovarian, in the experiment on SF-295 CNS, in the experiment with SNB-78 CNS and with SR leukemia was over 100 µM in each case.
`COc1c(C)c2c(c3c1c(=O)c1ccccc1n3C)C=CC(C)(C)O2`: the TGI with A498 renal is 73.4 µM; in the experiment on CAKI-1 renal it was 82.9 µM; in the experiment with DLD-1 colon, over 100 µM; with HOP-18 NSCLC it was 97.8 µM; in the experiment on HT29 colon it was 81.5 µM; with K-562 leukemia it was 66 µM. In addition, the TGI with M19-MEL melanoma is 82.4 µM; with MALME-3M melanoma, 56.7 µM; with NCI-H522 lung, 67.3 µM; in the experiment with OVCAR-3 ovarian it was 41 µM; with OVCAR-5 ovarian, 87.6 µM; in the experiment on SF-295 CNS, 45.8 µM. The TGI was determined as 72.9 µM in the experiment on SNB-78 CNS and 58.6 µM with SR leukemia.
Consider `O=C1OC2C(O)COC2(O)C1(O)C(C[N+](=O)[O-])c1ccc(Cl)cc1` (stereo not given), for which the TGI in the experiment with A498 renal worked out at 12.3 µM; with CAKI-1 renal, 30.1 µM; with DLD-1 colon, 3.93 µM; with HOP-18 NSCLC, 21.6 µM; in the experiment on HT29 colon, 6.11 µM; in the experiment with K-562 leukemia, 22.4 µM. For the same compound, the TGI in the experiment with M19-MEL melanoma was 6.84 µM; in the experiment with MALME-3M melanoma, 30.3 µM; with NCI-H522 lung, 23.7 µM; with OVCAR-3 ovarian it was 21.5 µM; with OVCAR-4 ovarian, 19.4 µM; with OVCAR-5 ovarian it was 32.6 µM. Moreover, the TGI in the experiment on SF-295 CNS worked out at 27.9 µM; in the experiment with SNB-78 CNS, 71.6 µM; in the experiment with SR leukemia it was 19.6 µM.
Take `O=C(/C=C/c1ccc(O)c(O)c1)OC1C[C@@](O)(C(=O)O)C[C@@H](O)[C@H]1OC(=O)/C=C/c1ccc(O)c(O)c1` (stereo not given in full): the TGI in the experiment with A498 renal, with DLD-1 colon, with HOP-18 NSCLC, in the experiment with HT29 colon, with K-562 leukemia and in the experiment with M19-MEL melanoma was over 100 µM in each case. The TGI in the experiment with MALME-3M melanoma, in the experiment with NCI-H522 lung, with OVCAR-3 ovarian, in the experiment with OVCAR-4 ovarian, in the experiment on OVCAR-5 ovarian and with SF-295 CNS was over 100 µM throughout. In addition, the TGI in the experiment with SNB-78 CNS and in the experiment on SR leukemia was over 100 µM in each case.
Take `CCOC(=O)C[C@@H](C)[C@]1(C(=O)OC)CCCC1=O`: the TGI is over 100 µM with A498 renal; over 100 µM in the experiment with CAKI-1 renal; over 71.3 µM in the experiment on DLD-1 colon; over 100 µM in the experiment with HOP-18 NSCLC; over 100 µM with HT29 colon; over 100 µM in the experiment with K-562 leukemia. The TGI in the experiment on M19-MEL melanoma, in the experiment on MALME-3M melanoma, in the experiment on NCI-H522 lung, in the experiment with OVCAR-3 ovarian, in the experiment on OVCAR-4 ovarian and in the experiment on OVCAR-5 ovarian was over 100 µM each time. Further, the TGI with SF-295 CNS was over 100 µM; with SNB-78 CNS, over 100 µM; with SR leukemia, 65.6 µM.
As to `COc1cc(OC)c2ssc3c(OC)cc(OC)c4ssc1c2-c43`, the TGI in the experiment with A498 renal, in the experiment with CAKI-1 renal, in the experiment on DLD-1 colon, in the experiment on HOP-18 NSCLC, in the experiment on HT29 colon and in the experiment with K-562 leukemia was over 100 µM in each case. In addition, the TGI with M19-MEL melanoma, in the experiment with MALME-3M melanoma, in the experiment on NCI-H522 lung, in the experiment with OVCAR-3 ovarian, in the experiment with OVCAR-4 ovarian and in the experiment on OVCAR-5 ovarian was over 100 µM each time. The TGI in the experiment with SF-295 CNS and with SNB-78 CNS was over 100 µM throughout.
Turning to `Cc1ccc2[nH]c3c(C)c4c(c(C)c3c2c1)CN(C)C=C4`, the GI50 in the experiment with CAKI-1 renal is 1.21 µM; with MALME-3M melanoma, 1.72 µM. Also, the TGI with CAKI-1 renal is 5.89 µM; in the experiment on DLD-1 colon it was 13.1 µM; with HOP-18 NSCLC it was 26.9 µM; in the experiment on HT29 colon it was 11.2 µM; in the experiment with K-562 leukemia it was over 38.9 µM; with MALME-3M melanoma it was 4.58 µM. Besides, the TGI with NCI-H522 lung came to 1.38 µM; in the experiment on OVCAR-3 ovarian, 14.8 µM; in the experiment with OVCAR-4 ovarian it was 6.76 µM; with OVCAR-5 ovarian, 9.41 µM; in the experiment with SF-295 CNS it was 3.73 µM; in the experiment with SNB-78 CNS it was 3.41 µM. The same compound registered a TGI in the experiment on SR leukemia of over 36.8 µM.
Regarding `COc1ccc(/C=N/N=C(\N)NO)c(Cl)c1O`, the TGI in the experiment on CAKI-1 renal was 54.8 µM; with DLD-1 colon, over 100 µM; in the experiment with HOP-18 NSCLC, 54.2 µM; in the experiment on K-562 leukemia, over 100 µM; in the experiment with M19-MEL melanoma, 53.3 µM; in the experiment with MALME-3M melanoma it was over 100 µM. Also, the TGI in the experiment with NCI-H522 lung was 42.1 µM; with OVCAR-3 ovarian, over 100 µM; with OVCAR-4 ovarian, over 100 µM; in the experiment with OVCAR-5 ovarian, 6.86 µM; with SF-295 CNS, 22.4 µM; with SNB-78 CNS it was over 100 µM.
`O=C(CSc1nnc(Cc2ccccc2)o1)Nc1cccc(Cl)c1`: the TGI with A498 renal, in the experiment on CAKI-1 renal, in the experiment with DLD-1 colon, with HOP-18 NSCLC, in the experiment on HT29 colon and with K-562 leukemia was over 100 µM each time. The TGI in the experiment on M19-MEL melanoma, with MALME-3M melanoma, in the experiment on NCI-H522 lung, in the experiment with OVCAR-3 ovarian, in the experiment on OVCAR-4 ovarian and in the experiment on OVCAR-5 ovarian was over 100 µM throughout. Moreover, the TGI in the experiment with SF-295 CNS and in the experiment with SNB-78 CNS was over 100 µM throughout.
In the case of `O=c1cc(-c2ccccc2)oc2cc(OCC(O)COc3ccc4c(=O)cc(-c5ccccc5)oc4c3)ccc12`, the TGI in the experiment with A498 renal, in the experiment on CAKI-1 renal, in the experiment on DLD-1 colon, in the experiment on HOP-18 NSCLC, in the experiment with HT29 colon and with K-562 leukemia was over 100 µM each time. Besides, the TGI in the experiment on M19-MEL melanoma, with MALME-3M melanoma, with NCI-H522 lung, in the experiment with OVCAR-3 ovarian, with OVCAR-5 ovarian and with SF-295 CNS was over 100 µM each time. The same compound showed a TGI in the experiment on SNB-78 CNS of 58.9 µM.

These data come from PubChem BioAssay (NCI).
